# Assay results taken from publication PMC8236452, “Pharmacokinetics and safety of rucaparib in patients with advanced solid tumors and hepatic impairment” (Cancer Chemotherapy and Pharmacology, 2021).
# Where two headings read alike, the source gives them in different places.
# Experiments:
# [1] = Plasma pharmacokinetics after a single oral dose of rucaparib 600 mg in patients with advanced solid tumors, by hepatic function group; conditions: for Vd/F / half-life / Tmax: human, plasma, po, 600 mg, single oral rucaparib 600 mg; for Vd/F: Vz/F
# Experimental: In Part 1, patients received a single oral dose of rucaparib 600 mg on day 1; PK samples were collected and safety monitored through day 7.
# Sample collection, processing, and shipping were conducted according to standardized protocols shared across study sites. Plasma samples were collected for PK analysis at the predose assessment and at 1, 2, 3, 4, 8, 12, 24, 48, 72, 96, 120, and 144 h postdose. A predose urine sample was collected less than 12 h prior to study drug administration. Total urine was collected 0–12 h and 12–24 h postdose. Total (bound and unbound) concentrations of rucaparib and its metabolite M324 in plasma and urine samples were determined by Q Squared Solutions BioSciences (Ithaca, NY, USA) using validated liquid chromatography mass spectrometry/mass spectrometry methods. Stable deuterium-labeled analytes were used as internal standards. The assay calibration ranges for plasma samples were 5–10,000 ng/mL for rucaparib and 1–1000 ng/mL for M324 with lower limits of quantification (LLOQ) of 5.00 and 1.00 ng/mL, respectively. For urine samples, the calibration range was 500–50,000 ng/mL for both rucaparib and M324, with a LLOQ of 500 ng/mL for both analytes. The precision was within 9.3% CV, and the accuracy was within ± 6.2%.
# PK parameters were estimated from the concentration–time profiles. Actual elapsed time after dosing was used to estimate plasma PK parameters based on noncompartmental methods using Phoenix® WinNonlin® version 8.1.0 (Certara USA, Inc., Princeton, NJ, USA). […] Exploratory PK parameters for M324 calculated based on plasma and urine concentration-time data were Cmax, AUC0–last, AUC0–inf, t1/2, tmax, Ae0–24, and CLR, as data allowed.
# PK parameters were calculated by noncompartmental analysis, analyzed using descriptive statistics, and presented by hepatic functional status. Analysis of variance (ANOVA) was used to compare PK parameters (e.g., Cmax, AUC0–last, and AUC0–inf) between the normal hepatic function group and the moderate hepatic impairment group per NCI-ODWG criteria. PK values were log-transformed before analysis. Baseline covariates (e.g., creatinine clearance [CLcr], sex, age, BMI, and ECOG PS) were tested for any significant effect (P value < 0.05). Geometric least-squares means were used to calculate the ratios of the PK parameters in the hepatic impairment group to those in the control group, along with 90% confidence intervals (CIs). The Wilcoxon rank-sum test was used to compare tmax values between the two groups, and estimates of the median differences were determined, along with 90% CIs. In addition, the relationships between log-transformed PK parameters (AUC0–last, AUC0–inf, Cmax) for rucaparib and M324 and hepatic function parameters (bilirubin and aspartate aminotransferase [AST]) relevant to the classification of hepatic impairment according to NCI-ODWG were explored by a linear regression approach.
# patients = system: patients; parameters: method as in PMID 28264872; conditions: dose escalation study; not reached; cited from earlier work
# [2] = parameters: method as in PMID 29799676, PMID 31250355, PMID 28264872; conditions: 600 mg BID, cited from earlier work
# [3] = parameters: method as in PMID 28222073; conditions: immediate-release tablet; cited from earlier work
# [4] = Urine pharmacokinetics (Ae0–24, CLR) after a single oral dose of rucaparib 600 mg in patients with advanced solid tumors; type: in vivo, human; conditions: urine, single oral rucaparib 600 mg; for CL renal: human, po, 600 mg
# From the text: Stable deuterium-labeled analytes were used as internal standards.
# PK parameters were estimated from the concentration–time profiles.
# [5] = Median (min–max), Child–Pugh mild hepatic impairment
# [6] = Median (min–max), Child–Pugh moderate hepatic impairment
# [7] = Median (min–max), Child–Pugh severe hepatic impairment
# [8] = Median (min–max), NCI-ODWG moderate hepatic impairment
# [9] = Median (min–max), NCI-ODWG normal hepatic function
# [10] = linear regression of log-transformed PK parameter on hepatic function parameter (NCI-ODWG)
# [11] = Child–Pugh mild hepatic impairment
# [12] = Child–Pugh moderate hepatic impairment
# [13] = Child–Pugh severe hepatic impairment
# [14] = NCI-ODWG moderate hepatic impairment
# [15] = NCI-ODWG normal hepatic function
structure (smiles),measurement,setting,value
CNCc1ccc(-c2[nH]c3cc(F)cc4c3c2CCNC4=O)cc1 [rucaparib],Vd/F,"[1]; GM, NCI-ODWG moderate hepatic impairment",1960 L
same,Vd/F,"[1]; GM, NCI-ODWG normal hepatic function",1650 L
same,Vd/F,"[1]; Mean (SD), Child–Pugh mild hepatic impairment",3340 L
same,Vd/F,"[1]; Mean (SD), Child–Pugh moderate hepatic impairment",1660 L
same,Vd/F,"[1]; Mean (SD), Child–Pugh severe hepatic impairment",2700 L
same,Vd/F,"[1]; Mean (SD), NCI-ODWG moderate hepatic impairment",2840 L
same,Vd/F,"[1]; Mean (SD), NCI-ODWG normal hepatic function",2220 L
same,Vd/F,[1]; [5],2130 L
same,Vd/F,[1]; [6],1280 L
same,Vd/F,[1]; [7],2700 L
same,Vd/F,[1]; [8],2190 L
same,Vd/F,[1]; [9],1270 L
same,half-life,"[1]; t1/2, GM, Child–Pugh mild hepatic impairment",25.2 h
same,half-life,"[1]; t1/2, GM, Child–Pugh moderate hepatic impairment",42.6 h
same,half-life,"[1]; t1/2, GM, Child–Pugh severe hepatic impairment",47.8 h
same,half-life,"[1]; t1/2, GM, NCI-ODWG moderate hepatic impairment",45 h
same,half-life,"[1]; t1/2, GM, NCI-ODWG normal hepatic function",26.1 h
same,half-life,"[1]; t1/2, Mean (SD), Child–Pugh mild hepatic impairment",27.5 h
same,half-life,"[1]; t1/2, Mean (SD), Child–Pugh moderate hepatic impairment",44.8 h
same,half-life,"[1]; t1/2, Mean (SD), Child–Pugh severe hepatic impairment",47.8 h
same,half-life,"[1]; t1/2, Mean (SD), NCI-ODWG moderate hepatic impairment",46.7 h
same,half-life,"[1]; t1/2, Mean (SD), NCI-ODWG normal hepatic function",28.5 h
same,half-life,"[1]; t1/2, Median (min–max), Child–Pugh mild hepatic impairment",26.6 h
same,half-life,"[1]; t1/2, Median (min–max), Child–Pugh moderate hepatic impairment",49.9 h
same,half-life,"[1]; t1/2, Median (min–max), Child–Pugh severe hepatic impairment",47.8 h
same,half-life,"[1]; t1/2, Median (min–max), NCI-ODWG moderate hepatic impairment",49.3 h
same,half-life,"[1]; t1/2, Median (min–max), NCI-ODWG normal hepatic function",26.3 h
same,Tmax,[1]; [5],3.98 h
same,Tmax,[1]; [6],3.95 h
same,Tmax,[1]; [7],4.49 h
same,Tmax,[1]; [8],3.96 h
same,Tmax,[1]; [9],3.97 h
same,"Slope estimate (90% CI), AUC0-inf vs AST",[1]; [10],0.001 (–0.002 to 0.004)
same,"Slope estimate (90% CI), AUC0-inf vs Bilirubin",[1]; [10],0.003 (–0.014 to 0.020)
same,"Slope estimate (90% CI), AUC0-last vs AST",[1]; [10],0.001 (–0.002 to 0.004)
same,"Slope estimate (90% CI), AUC0-last vs Bilirubin",[1]; [10],0.002 (–0.015 to 0.019)
same,"Slope estimate (90% CI), Cmax vs AST",[1]; [10],0 (–0.002 to 0.001)
same,"Slope estimate (90% CI), Cmax vs Bilirubin",[1]; [10],–0.002 (–0.011 to 0.007)
same,maximum tolerated dose,patients,> 840 mg BID
same,AUC0–12 h at steady state,[2]; 54% CV,16900 h⋅ng/mL
same,"mean steady-state maximum plasma concentration (Cmax,ss)",[2]; 54% CV,1940 ng/mL
same,"Median time to steady-state maximum concentration (tmax,ss)",[2],6840 s
same,time to achieve steady state,[2],1 week
same,"absolute bioavailability, range",[3],30–45%
same,mean absolute bioavailability,[3],36%
same,CL renal,"[4]; Child–Pugh mild hepatic impairment, read-out: CLR, GM",55.2 mL/min
same,CL renal,"[4]; Child–Pugh mild hepatic impairment, read-out: CLR, Mean (SD)",56.7 mL/min
same,CL renal,"[4]; Child–Pugh mild hepatic impairment, read-out: CLR, Median (min–max)",59.5 mL/min
same,CL renal,"[4]; Child–Pugh moderate hepatic impairment, read-out: CLR, GM",48.8 mL/min
same,CL renal,"[4]; Child–Pugh moderate hepatic impairment, read-out: CLR, Mean (SD)",52.3 mL/min
same,CL renal,"[4]; Child–Pugh moderate hepatic impairment, read-out: CLR, Median (min–max)",53.7 mL/min
same,CL renal,"[4]; Child–Pugh severe hepatic impairment, read-out: CLR, GM",16 mL/min
same,CL renal,"[4]; Child–Pugh severe hepatic impairment, read-out: CLR, Mean (SD)",20.1 mL/min
same,CL renal,"[4]; Child–Pugh severe hepatic impairment, read-out: CLR, Median (min–max)",20.1 mL/min
same,CL renal,"[4]; NCI-ODWG moderate hepatic impairment, read-out: CLR, GM",36.9 mL/min
same,CL renal,"[4]; NCI-ODWG moderate hepatic impairment, read-out: CLR, Mean (SD)",46.2 mL/min
same,CL renal,"[4]; NCI-ODWG moderate hepatic impairment, read-out: CLR, Median (min–max)",41.1 mL/min
same,CL renal,"[4]; NCI-ODWG normal hepatic function, read-out: CLR, GM",52.5 mL/min
same,CL renal,"[4]; NCI-ODWG normal hepatic function, read-out: CLR, Mean (SD)",53.5 mL/min
same,CL renal,"[4]; NCI-ODWG normal hepatic function, read-out: CLR, Median (min–max)",56.1 mL/min
same,"Ae0–24, GM",[4]; [11],17.6 mg
same,"Ae0–24, Mean (SD)",[4]; [11],20.7 (11.9) mg
same,"Ae0–24, Median (min–max)",[4]; [11],21.4 (7.69–40.6) mg
same,"Ae0–24, GM",[4]; [12],28.2 mg
same,"Ae0–24, Mean (SD)",[4]; [12],29.8 (9.93) mg
same,"Ae0–24, Median (min–max)",[4]; [12],33.2 (16.7–41.5) mg
same,"Ae0–24, GM",[4]; [13],8.49 mg
same,"Ae0–24, Mean (SD)",[4]; [13],8.89 (3.72) mg
same,"Ae0–24, Median (min–max)",[4]; [13],8.89 (6.26–11.5) mg
same,"Ae0–24, GM",[4]; [14],16.0 mg
same,"Ae0–24, Mean (SD)",[4]; [14],19.8 (13.7) mg
same,"Ae0–24, Median (min–max)",[4]; [14],16.7 (6.26–41.5) mg
same,"Ae0–24, GM",[4]; [15],22.8 mg
same,"Ae0–24, Mean (SD)",[4]; [15],25.4 (10.9) mg
same,"Ae0–24, Median (min–max)",[4]; [15],27.0 (7.69–40.6) mg
